{"source": "patent US11999782B2", "about": "“Therapeutic agents for the treatment of diseases associated with undesired cell proliferation” (Fundació Privada Institutció Catalana de Recerca I Estudis …, priority 2009, dated 2024)", "tested_on": "human LIF promoter", "experiment": "LIF promoter luciferase reporter assay", "assay_type": "cell-based", "details": "U373MG cells as printed; 100 pM TGFβ1, 20 hours", "protocol": "FIG. 4. TGFβ induces the transcription of LIF through an activated Smad complex. (A) Diagrams of the indicator constructs of luciferase LIF. (B) A172 glioma cells were transfected with indicator constructs of luciferase LIF (−634/+32), (−276/+32), (−276/+32) mutSBE or (−73/+32). 16 hours after transfection, the cells were treated with 100 pM TGFβ1 for 20 hours and were analyzed for luciferase activity. (C) U373MG cells were treated with 100 pM TGFβ1 for 3 hours, and ChIP assays were performed with the indicated antibodies and the PCR primers indicated. (D, E) The levels of LIF were determined by means of qRT-PCR analysis in U373MG (D) or GEM neurospheres (E) treated with 100 pM TGFβ1 for 3 hours after silencing mediated by siRNA of the indicated members of the indicated Smad family. Western blotting was performed using antibodies specific for Smads or qRT-PCR of Smad4. The β-actin was determined as an internal normalization control.\nGenomic DNA of U373MG was used to amplify the −634/+32 region of the human LIF promoter which was cloned into the pGL2-basic luciferase vector. The deletion constructs (−267/+32), and (−73/+32) were generated by means of digestion of the construct (−634/+32). Two point mutations were introduced in positions −183 bp and −184 bp in the construct (−267/+32) to interrupt the Smad binding element (SBE) and generate the construct (−267/+32) mutSBE. […]", "data": [{"substance": "TGFβ: TGFβ1 (R&D Systems), used at 100 pM according to the figure legends", "values": [{"measurement": "transactivation of LIF promoter reporter constructs (−634/+32 and −276/+32)", "result": "capable of transactivating"}]}]}
